Experimental data from publication PMC12040169 (PLOS Biology, 2025).

Experiment: in vitro
Settings: human, hela cells, % viability

**Q.** With `CC1CCc2c(sc3ncnc(OCC(=O)N4CCNC4=O)c23)C1` (stereo not shown) [CBK305775] as the compound, how does the viability at 28.5 h, 10 µM read?
**A.** 96.1%

**Q.** With `Cc1cccc(CN2CCC(NC(=O)C3(C#N)CCCC3)CC2)c1` [CBK305781] as the compound, how does the viability at 28.5 h, 10 µM read?
**A.** 91.8%

**Q.** For `O=C(CCc1cc(F)ccc1F)NCCCn1nc2n(c1=O)CCCC2` [CBK305782], which viability at 28.5 h, 10 µM is on record?
**A.** 97.7%

**Q.** Which viability at 28.5 h, 10 µM does the source give for `Cc1nc(S(=O)(=O)N2CCC(C(=O)N3CCCC3)CC2)cn1C` [CBK305786] here?
**A.** 88.3%

**Q.** For `CC1CCN(C(=O)CC(NC(N)=O)c2cccc(Br)c2)CC1` (stereo not shown) [CBK305788], which viability at 28.5 h, 10 µM is on record?
**A.** 95.3%

**Q.** For `CCn1c(C)cc(C(=O)N2CCN(c3nccc(OC)n3)CC2)c1C` [CBK305791], which viability at 28.5 h, 10 µM is on record?
**A.** 95.5%

**Q.** For `Cc1nn(C)c2ncc(S(=O)(=O)NC(C)c3ccc(F)cc3)cc12` (stereo not shown) [CBK305793], which viability at 28.5 h, 10 µM is on record?
**A.** 93.4%

**Q.** With `COc1ccc(Cl)cc1CN(C)C(=O)c1ccc(C)[nH]c1=O` [CBK305794] as the compound, how does the viability at 28.5 h, 10 µM read?
**A.** 92.9%

**Q.** For `Cc1nc(CCNC(=O)C2CC(c3cccc(F)c3)=NO2)cs1` (stereo not shown) [CBK305798], which viability at 28.5 h, 10 µM is on record?
**A.** 106%

**Q.** With `CC(=O)Nc1ccc(NCc2nc(CC(C)C)no2)c(C(F)(F)F)c1` [CBK305799] as the compound, how does the viability at 28.5 h, 10 µM read?
**A.** 110%

**Q.** With `COc1ccnc(N2CCN(C(=O)c3ccc(C)n3C)CC2)n1` [CBK305803] as the compound, how does the viability at 28.5 h, 10 µM read?
**A.** 84.7%

**Q.** For `CC1CCCN(C(=O)CC(NC(N)=O)c2cccc(Br)c2)CC1` (stereo not shown) [CBK305804], which viability at 28.5 h, 10 µM is on record?
**A.** 91.7%

**Q.** With `O=C1CN(c2nc(-c3ccncc3)nc3ccccc23)CCN1` [CBK305805] as the compound, how does the viability at 28.5 h, 10 µM read?
**A.** 91.9%

**Q.** Which viability at 28.5 h, 10 µM does the source give for `Cc1ccc(CCC(=O)N(CCC#N)C2CCOCC2)c(C)c1` [CBK305809] here?
**A.** 87.4%

**Q.** With `CC1CCC(C(N)=O)CN1C(=O)c1csc(Br)c1` (stereo not shown) [CBK305812] as the compound, how does the viability at 28.5 h, 10 µM read?
**A.** 92.3%

**Q.** Which viability at 28.5 h, 10 µM does the source give for `Cc1nc2n(c1C)CCN(c1ccc3nnc(C(F)(F)F)n3n1)C2` [CBK305815] here?
**A.** 102%

**Q.** Which viability at 28.5 h, 10 µM does the source give for `Cc1cc(C#N)ccc1OCC(=O)NC1CCS(=O)(=O)C1` (stereo not shown) [CBK305816] here?
**A.** 84.9%

**Q.** For `COC(=O)c1cccn2cc(CN(CC#N)C3CC3)nc12` [CBK305821], which viability at 28.5 h, 10 µM is on record?
**A.** 105%

**Q.** Which viability at 28.5 h, 10 µM does the source give for `Cc1noc(C)c1CC(=O)NCc1cccc(C#N)c1` [CBK305822] here?
**A.** 106%

**Q.** Which viability at 28.5 h, 10 µM does the source give for `Cc1cc(=O)n2ncn(CC(=O)NCCOc3ccccc3)c2c1` [CBK305823] here?
**A.** 99.3%

**Q.** With `CNS(=O)(=O)c1cccc(C(C)NC(=O)N2CCSCC2)c1` (stereo not shown) [CBK305825] as the compound, how does the viability at 28.5 h, 10 µM read?
**A.** 95.1%

**Q.** With `Cc1ccc(NCC2CCN(c3cc(=O)n4oc(C)cc4n3)C2)nc1` (stereo not shown) [CBK305827] as the compound, how does the viability at 28.5 h, 10 µM read?
**A.** 90.1%

**Q.** With `Cc1nc(C)n(CC2CCCN(Cc3nc4ccccc4o3)C2)n1` (stereo not shown) [CBK305828] as the compound, how does the viability at 28.5 h, 10 µM read?
**A.** 95.3%

**Q.** Which viability at 28.5 h, 10 µM does the source give for `CN(Cc1ccccc1N1CCOCC1)C(=O)Cc1cn2ccsc2n1` [CBK305830] here?
**A.** 109%

**Q.** For `COCCn1c(SC(C)C(=O)N2CCNC2=O)nc2ccccc21` (stereo not shown) [CBK305832], which viability at 28.5 h, 10 µM is on record?
**A.** 85.7%

**Q.** For `COc1ccc(-c2nn(CCC#N)cc2C(=O)N2CCCCC2)cc1` [CBK305834], which viability at 28.5 h, 10 µM is on record?
**A.** 92.4%

**Q.** With `COc1cccc(-c2nn(CCC#N)cc2C(N)=O)c1` [CBK305835] as the compound, how does the viability at 28.5 h, 10 µM read?
**A.** 95%

**Q.** For `CCN(CC(=O)NCc1ccc(F)cc1)S(=O)(=O)c1ccc(Cl)s1` [CBK305837], which viability at 28.5 h, 10 µM is on record?
**A.** 88.2%

**Q.** With `Cc1nc2ncnn2c(C)c1CCC(=O)OCc1ccc(C#N)cc1` [CBK305838] as the compound, how does the viability at 28.5 h, 10 µM read?
**A.** 83.7%

**Q.** With `CCN(CC(=O)NCc1ccc(F)cc1)C(=O)c1ccc(C#N)cc1` [CBK305841] as the compound, how does the viability at 28.5 h, 10 µM read?
**A.** 100%

**Q.** For `CCN(CC)S(=O)(=O)c1ccc(C(=O)NCc2ccc(OC)cc2)cc1` [CBK305844], which viability at 28.5 h, 10 µM is on record?
**A.** 71.6%

**Q.** For `CCCNC(=O)CN(C)CC(=O)Nc1sc2c(c1C#N)CCC(C)C2` (stereo not shown) [CBK305845], which viability at 28.5 h, 10 µM is on record?
**A.** 82.5%

**Q.** Which viability at 28.5 h, 10 µM does the source give for `CC(Nc1ccc(N2CCOCC2)cc1)C(=O)Nc1cccc(C#N)c1` (stereo not shown) [CBK305846] here?
**A.** 82.2%

**Q.** With `CC(C)Oc1ccc(C(=O)N2CCN(c3ccccc3)CC2)cc1` [CBK305847] as the compound, how does the viability at 28.5 h, 10 µM read?
**A.** 83.5%

**Q.** With `Cc1nn(C)c(C)c1NC(=O)COc1ccccc1C#N` [CBK305850] as the compound, how does the viability at 28.5 h, 10 µM read?
**A.** 95%

**Q.** With `O=C(CSc1ccc(Cl)cc1)Nc1ccc(CN2CCOCC2)cc1` [CBK305855] as the compound, how does the viability at 28.5 h, 10 µM read?
**A.** 89%

**Q.** For `Cc1nc2nc(N)nn2c(C)c1CCC(=O)NCc1ccccc1F` [CBK305860], which viability at 28.5 h, 10 µM is on record?
**A.** 77.6%
